Experimental findings from US4175125A, “Method for treating methicillin resistant staphylococcus aureus” (Eli Lilly and Company, priority 1978, dated 1979) are described below.

In brackets after ≈: the same amount, converted by molar mass. Like-named read-outs stand apart in the source and are kept apart here.

The subject of test [1] is Staphylococcus aureus cultures. The experiment in a line: Agar dilution MIC, Example 13 compound vs methicillin resistant Staphylococcus aureus. In kind it is cell-based. From the text:
The table which follows gives the minimum inhibitory concentration (MIC) in micrograms of compound per milliliter of culture (μg/ml), in comparison with similar MIC values for the known antibiotics methicillin, cephalothin and cephaloridine against the same strains of bacteria.
A general note: Agar dilution tests growth on a series of plates holding different concentrations.

Test [2] concerns methicillin-resistant Staphylococcus aureus. The test can be described thus: Gradient plate test (MIC) against methicillin-resistant Staphylococcus aureus. It counts as cell-based. Particulars: Staphylococcus aureus, read-out: minimum inhibitory concentration (MIC). The protocol: The method used is essentially that described by Bryson and Szybalski in 1952 (Science 116:45-46). The inoculum treatment method used for penicillin resistant Staphylococci was reported by Godzeski et al in Antimicrobial Agents and Chemotherapy, May, 1969, pp. 547-554.
A standard Falcon square plastic petri dish is used. A layer of agar (10 ml.) is poured into one of the square dishes, the dish tipped 5 mm. off the horizontal, and the agar layer allowed to harden in this position. This bottom layer of agar contains the antibiotic, the serum, and/or other material to be tested. The medium is Difco Penassay Agar containing 2 percent agar. We routinely used 4 ml. of human or horse serum for "serum-inactivation" testing. […] Therefore, serum is routinely added only to the bottom layer.
After the bottom, slanted layer of agar medium has hardened, the plate is placed flat and another 10 ml. of medium added and allowed to harden.
The inoculum of resistant Staphylococci, as described, is prepared by diluting the water suspension 1/50 in 0.25 percent agar in sterile water or saline. For Gram negative organisms, an overnight broth culture is diluted 1/50 in the 0.25 percent agar-water. This dilution is thoroughly shaken to evenly suspend the bacteria. To streak the plate, we use a 1 ml. pipet containing an aliquot of the final […] agar dilution. After a little practice, a smooth even stroke of inoculum can be laid down very rapidly. The trick is in the smoothness of the streak--it must be accomplished uniformly and quickly.
After 24 hours incubation at 35°-37° C. the plates are read by simply measuring the length of bacterial growth as a percentage of the entire streak distance which is then converted to the percent of antibiotic concentration in the plate.
Average values of duplicate measurements are calculated and the M.I.C.'s reported are average of 2 streaks on the plate and from 2 to 3 duplicate plates. Eight streaks can be easily placed on each plate. If sharp end points are not obtained, the middle concentration between the beginning of inhibition of the streak to the end of growth is measured. The concentration of the antibiotic under examination is varied from plate to plate in a series as follows: […]
This method of screening penicillins and cephalosporins is quite satisfactory. Control plates containing penicillin and staphcillin or prostaphlin, or other control antibiotic, are used daily for the resistant staphylococcal activity screen. The gradient plate method has shown differences between antibiotics that were not apparent by any other methods of screening. […] We believe that the gradient plate screen is more sensitive to small differences between related antibiotics than other methods and pictures of the plates can provide a permanent record. The method also lends itself readily to modification of specific purposes--e.g., cross gradients.
The compounds listed below are examples of compounds useful in the method of this invention. After the compound name there is given in parentheses, where tested, the minimum inhibitory concentrations (MIC) in micrograms per milliliter (μg/ml) for the compound in the above described gradient plate procedure test against methicillin-resistant Staphylococcus aureus, (in the absence of blood serum/in the presence of 20 percent blood serum).
and pharmaceutically acceptable salts thereof. The abbreviation "s.z." means skip zones.

Where [3] appears, read: in the presence of 20 percent blood serum.

Take `CC(=O)OCC1=C(C(=O)O)N2C(=O)[C@@H](NC(=O)Cc3cccs3)[C@H]2SC1` [Cephalothin, cephalothin, reference compound]: the MIC in test [1] (culture 3055 (control), Trypticase Soy Agar with 4.5% NaCl added (5% NaCl)) was found to be 0.25 µg/mL (≈ 0.631 µM); in test [1] (culture 3055 (control), Trypticase Soy Agar, 0.5% NaCl), 0.13 µg/mL (≈ 0.328 µM); in test [1] (culture 3130, Trypticase Soy Agar with 4.5% NaCl added (5% NaCl)), 1 µg/mL (≈ 2.52 µM); in test [1] (culture 3130, Trypticase Soy Agar, 0.5% NaCl), 0.5 µg/mL (≈ 1.26 µM); in test [1] (culture 3131, Trypticase Soy Agar with 4.5% NaCl added (5% NaCl)) it was 1 µg/mL (≈ 2.52 µM); in test [1] (culture 3131, Trypticase Soy Agar, 0.5% NaCl), 0.5 µg/mL (≈ 1.26 µM). The MIC in test [1] (culture 3132, Trypticase Soy Agar with 4.5% NaCl added (5% NaCl)) turned out to be 0.5 µg/mL (≈ 1.26 µM); in test [1] (culture 3132, Trypticase Soy Agar, 0.5% NaCl), 0.5 µg/mL (≈ 1.26 µM); in test [1] (culture 3133, Trypticase Soy Agar with 4.5% NaCl added (5% NaCl)), 0.5 µg/mL (≈ 1.26 µM); in test [1] (culture 3133, Trypticase Soy Agar, 0.5% NaCl), 0.5 µg/mL (≈ 1.26 µM); in test [1] (culture 3134, Trypticase Soy Agar with 4.5% NaCl added (5% NaCl)) it was 1 µg/mL (≈ 2.52 µM); in test [1] (culture 3134, Trypticase Soy Agar, 0.5% NaCl) it was 2 µg/mL (≈ 5.04 µM). Also, the MIC stood at 1 µg/mL (≈ 2.52 µM) in test [1] (culture 3135, Trypticase Soy Agar with 4.5% NaCl added (5% NaCl)); 1 µg/mL (≈ 2.52 µM) in test [1] (culture 3135, Trypticase Soy Agar, 0.5% NaCl); 1 µg/mL (≈ 2.52 µM) in test [1] (culture 3136, Trypticase Soy Agar with 4.5% NaCl added (5% NaCl)); 0.5 µg/mL (≈ 1.26 µM) in test [1] (culture 3136, Trypticase Soy Agar, 0.5% NaCl); 1 µg/mL (≈ 2.52 µM) in test [1] (culture 3137, Trypticase Soy Agar with 4.5% NaCl added (5% NaCl)); 2 µg/mL (≈ 5.04 µM) in test [1] (culture 3137, Trypticase Soy Agar, 0.5% NaCl). Also, the MIC in test [1] (culture 3138, Trypticase Soy Agar with 4.5% NaCl added (5% NaCl)) turned out to be 2 µg/mL (≈ 5.04 µM); in test [1] (culture 3138, Trypticase Soy Agar, 0.5% NaCl), 1 µg/mL (≈ 2.52 µM); in test [1] (culture 3139, Trypticase Soy Agar with 4.5% NaCl added (5% NaCl)), 0.25 µg/mL (≈ 0.631 µM); in test [1] (culture 3139, Trypticase Soy Agar, 0.5% NaCl), 0.5 µg/mL (≈ 1.26 µM); in test [1] (culture H232 (control), Trypticase Soy Agar with 4.5% NaCl added (5% NaCl)), 0.25 µg/mL (≈ 0.631 µM); in test [1] (culture H232 (control), Trypticase Soy Agar, 0.5% NaCl) it was 2.5 µg/mL (≈ 6.31 µM). Besides, the MIC in test [1] (culture Havarmak 1136501, Trypticase Soy Agar with 4.5% NaCl added (5% NaCl)) amounted to 1 µg/mL (≈ 2.52 µM); in test [1] (culture Havarmak 1136501, Trypticase Soy Agar, 0.5% NaCl), 1 µg/mL (≈ 2.52 µM); in test [1] (culture S 61, Trypticase Soy Agar with 4.5% NaCl added (5% NaCl)), 1 µg/mL (≈ 2.52 µM); in test [1] (culture S 61, Trypticase Soy Agar, 0.5% NaCl) it was 1 µg/mL (≈ 2.52 µM); in test [1] (culture Seattle 966, Trypticase Soy Agar with 4.5% NaCl added (5% NaCl)), 0.25 µg/mL (≈ 0.631 µM); in test [1] (culture Seattle 966, Trypticase Soy Agar, 0.5% NaCl), 0.5 µg/mL (≈ 1.26 µM).
In the case of `CC(=O)OCC1=C(C(=O)O)N2C(=O)C(NC(=O)CSc3cc(Cl)cc(Cl)c3)C2SC1` (stereo not drawn) [Example 3, 7-(3,5-Dichlorophenylthioacetamido)-cephalosporanic acid], the figures for the MIC in test [2] (in the absence of blood serum) and in test [2] (setting [3]) were 2 µg/mL (≈ 4.07 µM) and 8.7 µg/mL, respectively.
On the same counts, the results for `CC(=O)OCC1=C(C(=O)O)N2C(=O)C(NC(=O)CSc3cc(Cl)ccc3Cl)C2SC1` (stereo not drawn) [Example 2, 7-(2,5-Dichlorophenylthioacetamido)-cephalosporanic acid] are 0.8 µg/mL (≈ 1.63 µM) and 1 µg/mL.
For the compound `COc1cccc(OC)c1C(=O)N[C@@H]1C(=O)N2[C@@H]1SC(C)(C)[C@@H]2C(=O)O` [Methicillin, methicillin], the MIC in test [1] (culture 3055 (control), Trypticase Soy Agar with 4.5% NaCl added (5% NaCl), read-out: MIC) is 1 µg/mL (≈ 2.63 µM); in test [1] (culture 3055 (control), Trypticase Soy Agar, 0.5% NaCl, read-out: MIC), 1 µg/mL (≈ 2.63 µM); in test [1] (culture 3130, Trypticase Soy Agar with 4.5% NaCl added (5% NaCl), read-out: MIC) it was 16 µg/mL (≈ 42.1 µM); in test [1] (culture 3130, Trypticase Soy Agar, 0.5% NaCl, read-out: MIC) it was 4 µg/mL (≈ 10.5 µM); in test [1] (culture 3131, Trypticase Soy Agar with 4.5% NaCl added (5% NaCl), read-out: MIC), 32 µg/mL (≈ 84.1 µM); in test [1] (culture 3131, Trypticase Soy Agar, 0.5% NaCl, read-out: MIC) it was 4 µg/mL (≈ 10.5 µM). The MIC in test [1] (culture 3132, Trypticase Soy Agar with 4.5% NaCl added (5% NaCl), read-out: MIC) came to 8 µg/mL (≈ 21 µM); in test [1] (culture 3132, Trypticase Soy Agar, 0.5% NaCl, read-out: MIC), 4 µg/mL (≈ 10.5 µM); in test [1] (culture 3133, Trypticase Soy Agar with 4.5% NaCl added (5% NaCl), read-out: MIC) it was 2 µg/mL (≈ 5.26 µM); in test [1] (culture 3133, Trypticase Soy Agar, 0.5% NaCl, read-out: MIC), 2 µg/mL (≈ 5.26 µM); in test [1] (culture 3134, Trypticase Soy Agar with 4.5% NaCl added (5% NaCl), read-out: MIC), 32 µg/mL (≈ 84.1 µM); in test [1] (culture 3134, Trypticase Soy Agar, 0.5% NaCl, read-out: MIC), 8 µg/mL (≈ 21 µM). Moreover, the MIC worked out at 32 µg/mL (≈ 84.1 µM) in test [1] (culture 3135, Trypticase Soy Agar with 4.5% NaCl added (5% NaCl), read-out: MIC); 4 µg/mL (≈ 10.5 µM) in test [1] (culture 3135, Trypticase Soy Agar, 0.5% NaCl, read-out: MIC); 64 µg/mL (≈ 168 µM) in test [1] (culture 3136, Trypticase Soy Agar with 4.5% NaCl added (5% NaCl), read-out: MIC); 4 µg/mL (≈ 10.5 µM) in test [1] (culture 3136, Trypticase Soy Agar, 0.5% NaCl, read-out: MIC); 64 µg/mL (≈ 168 µM) in test [1] (culture 3137, Trypticase Soy Agar with 4.5% NaCl added (5% NaCl), read-out: MIC); 8 µg/mL (≈ 21 µM) in test [1] (culture 3137, Trypticase Soy Agar, 0.5% NaCl, read-out: MIC). In addition, the MIC is 32 µg/mL (≈ 84.1 µM) in test [1] (culture 3138, Trypticase Soy Agar with 4.5% NaCl added (5% NaCl), read-out: MIC); 8 µg/mL (≈ 21 µM) in test [1] (culture 3138, Trypticase Soy Agar, 0.5% NaCl, read-out: MIC); 1 µg/mL (≈ 2.63 µM) in test [1] (culture 3139, Trypticase Soy Agar with 4.5% NaCl added (5% NaCl), read-out: MIC); 2 µg/mL (≈ 5.26 µM) in test [1] (culture 3139, Trypticase Soy Agar, 0.5% NaCl, read-out: MIC); 1 µg/mL (≈ 2.63 µM) in test [1] (culture H232 (control), Trypticase Soy Agar with 4.5% NaCl added (5% NaCl), read-out: MIC); 2 µg/mL (≈ 5.26 µM) in test [1] (culture H232 (control), Trypticase Soy Agar, 0.5% NaCl, read-out: MIC). The MIC in test [1] (culture Havarmak 1136501, Trypticase Soy Agar with 4.5% NaCl added (5% NaCl), read-out: MIC) was determined as 64 µg/mL (≈ 168 µM); in test [1] (culture Havarmak 1136501, Trypticase Soy Agar, 0.5% NaCl, read-out: MIC) it was 8 µg/mL (≈ 21 µM); in test [1] (culture S 61, Trypticase Soy Agar with 4.5% NaCl added (5% NaCl), read-out: MIC), 32 µg/mL (≈ 84.1 µM); in test [1] (culture S 61, Trypticase Soy Agar, 0.5% NaCl, read-out: MIC) it was 4 µg/mL (≈ 10.5 µM); in test [1] (culture Seattle 966, Trypticase Soy Agar with 4.5% NaCl added (5% NaCl), read-out: MIC), 16 µg/mL (≈ 42.1 µM); in test [1] (culture Seattle 966, Trypticase Soy Agar, 0.5% NaCl, read-out: MIC), 4 µg/mL (≈ 10.5 µM).
With `CC(=O)OCC1=C(C(=O)O)N2C(=O)C(NC(=O)CSc3ccc(Cl)c(Cl)c3)C2SC1` (stereo not drawn) [Example 1, 7-(3,4-dichlorophenylthioacetamido)cephalosporanic acid], the MIC in test [2] (in the absence of blood serum) worked out at 1 µg/mL (≈ 2.04 µM); in test [2] (setting [3]), 1.7 µg/mL.
